pIC50: −log10 of the molar value. Where a name gives a salt, the structure may show the parent alone.
The compounds below were run on 293T-HRE-GFP-luc cells (assay: Cell-based reporter assay for IC50 determinations (HRE-luciferase, hypoxia)). Conditions: 6 h, 6 hrs hypoxia (1% O2), luminescence.
In short: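 293T-HRE-GFP-luc cells were pre-incubated with serially diluted compounds for 30 min under normoxia, then held 6 hrs in hypoxia (1% O2, 37° C). HRE-driven luciferase read by Steadylite Plus luminescence; IC50 from four-parameter logistic fit.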
Compound `CC(C)(O)c1cccc(Cn2cc(-c3nnc(-c4ccc(OC(F)F)cc4)o3)ccc2=O)c1` [Example 261, 5-{5-[4-(difluoromethoxy)phenyl]-1,3,4-oxadiazol-2-yl}-1-{[3-(2-hydroxypropan-2-yl)phenyl]methyl}-1,2-dihydropyridin-2-one] has a pIC50 of 6.00 to 7.00.
Work on `COC(=O)c1cccc(Cn2nc(-c3nc(-c4ccc(OC(F)(F)F)cc4)no3)ccc2=O)c1` [Example 109, methyl 3-((6-oxo-3-(3-(4-(trifluoromethoxy)phenyl)-1,2,4-oxadiazol-5-yl)pyridazin-1(6H)-yl)methyl)benzoate] yielded a pIC50 of 6.00 to 7.00.
Compound `O=c1ccc(-c2nc(-c3ccc(OC(F)(F)F)cc3)no2)cn1Cc1ccnc(N2CCCC2)c1` [Example 159, 1-{[2-(pyrrolidin-1-yl)pyridin-4-yl]methyl}-5-{3-[4-(trifluoromethoxy)phenyl]-1,2,4-oxadiazol-5-yl}-1,2-dihydropyridin-2-one] has a pIC50 greater than 7.00.
`COCCOc1cccc(Cn2cc(-c3noc(-c4ccc(C(=O)N(C)C)cc4)n3)ccc2=O)c1` [Example 218, 4-[3-(1-{[3-(2-methoxyethoxy)phenyl]methyl}-6-oxo-1,6-dihydropyridin-3-yl)-1,2,4-oxadiazol-5-yl]-N,N-dimethylbenzamide] gave a pIC50 of 6.00 to 7.00.
Work on `COc1ccc(Cn2cc(-c3nc(-c4ccc(OC(F)(F)F)cc4)no3)ccc2=O)cc1` [Example 136, 1-[(4-methoxyphenyl)methyl]-5-{3-[4-(trifluoromethoxy)phenyl]-1,2,4-oxadiazol-5-yl}-1,2-dihydropyridin-2-one] yielded a pIC50 greater than 7.00.
With `COCCOc1cccc(Cn2cc(-c3noc(-c4ccc(C(C)(C)OC)cc4)n3)ccc2=O)c1` [Example 81, 1-(3-(2-Methoxyethoxy)benzyl)-5-(5-(4-(2-methoxypropan-2-yl)phenyl)-1,2,4-oxadiazol-3-yl)pyridin-2(1H)-one] the pIC50 was greater than 7.00.
`CN1CCN(c2cc(Cn3cc(-c4nnc(-c5ccc(OC(F)(F)F)cc5)o4)ccc3=O)ccn2)CC1` [Example 101, 1-Methyl-4-(4-((2-oxo-5-(5-(4-(trifluoromethoxy)phenyl)-1,3,4-oxadiazol-2-yl)pyridin-1(2H)-yl)methyl)pyridin-2-yl)piperazin-1-ium 2,2,2-trifluoroacetate] showed a pIC50 of 6.00 to 7.00.
`CN1CCN(c2cccc(Cn3cccc(C(=O)Nc4ccc(OC(F)(F)F)cc4)c3=O)c2)CC1` [Example 11, 1-Methyl-4-(3-((2-oxo-3-((4-(trifluoromethoxy)phenyl)carbamoyl)pyridin-1(2H)-yl)methyl)phenyl)piperazin-1-ium trifluoroacetate] was tested, and the pIC50 was greater than 7.00.
Compound `Cc1cnc(-c2nc(-c3ccc(OC(F)(F)F)cc3)no2)nc1Cc1cccc(N2CCN(C)CC2)c1` [Example 19, 5-(5-methyl-4-(3-(4-methylpiperazin-1-yl)benzyl)pyrimidin-2-yl)-3-(4-(trifluoromethoxy)phenyl)-1,2,4-oxadiazole] has a pIC50 greater than 7.00.
Compound `CS(=O)(=O)CCCOc1cccc(Cn2cc(-c3nnc(-c4ccc(OC(F)(F)F)cc4)o3)ccc2=O)c1` [Example 104] has a pIC50 greater than 7.00.
With `O=c1ccc(-c2nc(-c3ccc(OC(F)(F)F)cc3)no2)nn1Cc1ccc(F)c(Br)c1` [Example 108, 2-(3-bromo-4-fluorobenzyl)-6-(3-(4-(trifluoromethoxy)phenyl)-1,2,4-oxadiazol-5-yl)pyridazin-3(2H)-one] the pIC50 was 6.00 to 7.00.
`O=c1ccc(-c2cc(-c3ccc(OC(F)(F)F)cc3)no2)cn1Cc1cccc(N2CCCS2(=O)=O)c1` [Example 252, 1-(3-(1,1-dioxidoisothiazolidin-2-yl)benzyl)-5-(3-(4-(trifluoromethoxy)phenyl)isoxazol-5-yl)pyridin-2(1H)-one] gave a pIC50 greater than 7.00.
In the case of `COCCOc1cccc(Cn2cc(-c3noc(-c4cnc(OC(C)C)nc4)n3)ccc2=O)c1` [Example 241, 1-{[3-(2-methoxyethoxy)phenyl]methyl}-5-{5-[2-(propan-2-yloxy)pyrimidin-5-yl]-1,2,4-oxadiazol-3-yl}-1,2-dihydropyridin-2-one], the pIC50 was greater than 7.00.
`O=c1ccc(-c2nc(-c3ccc(OC(F)(F)F)cc3)no2)cn1Cc1ccnc(N2CCOCC2)c1` [Example 158, 1-{[2-(morpholin-4-yl)pyridin-4-yl]methyl}-5-{3-[4-(trifluoromethoxy)phenyl]-1,2,4-oxadiazol-5-yl}-1,2-dihydropyridin-2-one] gave a pIC50 greater than 7.00.
Compound `O=C(O)CCc1cccc(Cn2cc(-c3nc(-c4ccc(OC(F)(F)F)cc4)no3)ccc2=O)c1` [Example 47, 3-{3-[(2-oxo-5-{3-[4-(trifluoromethoxy)phenyl]-1,2,4-oxadiazol-5-yl}-1,2-dihydropyridin-1-yl)methyl]phenyl}propanoic acid] has a pIC50 of 6.00 to 7.00.
With `CN1CCN(c2cccc(Cn3nc(-c4nc(-c5ccc(OC(F)(F)F)cc5)no4)ccc3=O)c2)CC1` [Example 13, 2-(3-(4-Methylpiperazin-1-yl)benzyl)-6-(3-(4-(trifluoromethoxy)phenyl)-1,2,4-oxadiazol-5-yl)pyridazin-3(2H)-one] the pIC50 was greater than 7.00.
For `COCCOc1cccc(Cn2cc(-c3noc(-c4ccc(N5CCCS5(=O)=O)cc4)n3)ccc2=O)c1` [Example 66, 5-(5-(4-(1,1-Dioxidoisothiazolidin-2-yl)phenyl)-1,2,4-oxadiazol-3-yl)-1-(3-(2-methoxyethoxy)benzyl)pyridin-2(1H)-one], the pIC50 was 6.00 to 7.00.
With `O=c1ccc(-c2nc(-c3ccc(OC(F)(F)F)cc3)no2)cn1Cc1cccc(N2CCCC2)c1` [Example 31, 1-{[3-(Pyrrolidin-1-yl)phenyl]methyl}-5-{3-[4-(trifluoromethoxy)phenyl]-1,2,4-oxadiazol-5-yl}-1,2-dihydropyridin-2-one] the pIC50 was greater than 7.00.
Compound `CS(=O)(=O)C1CCN(c2cccc(Cn3nc(-c4nc(-c5ccc(OC(F)(F)F)cc5)no4)ccc3=O)c2)CC1` [Example 173, 2-{[3-(4-methanesulfonylpiperidin-1-yl)phenyl]methyl}-6-{3-[4-(trifluoromethoxy)phenyl]-1,2,4-oxadiazol-5-yl}-2,3-dihydropyridazin-3-one] has a pIC50 greater than 7.00.
In the case of `CS(=O)(=O)C1CCN(c2cccc(Cn3nc(-c4nc(-c5ccc(OC(F)F)cc5)no4)ccc3=O)c2)CC1` [Example 82, 6-(3-(4-(Difluoromethoxy)phenyl)-1,2,4-oxadiazol-5-yl)-2-(3-(4-(methylsulfonyl)piperidin-1-yl)benzyl)pyridazin-3(2H)-one], the pIC50 was greater than 7.00.
`COCCOc1cccc(Cn2cc(-c3noc(-c4ccc5c(c4)CCO5)n3)ccc2=O)c1` [Example 228, 5-[5-(2,3-dihydro-1-benzofuran-5-yl)-1,2,4-oxadiazol-3-yl]-1-{[3-(2-methoxyethoxy)phenyl]methyl}-1,2-dihydropyridin-2-one] was tested, and the pIC50 was 6.00 to 7.00.
`CN1CCN(c2cc(Cn3cccc(C(=O)Nc4ccc(OC(F)(F)F)cc4)c3=O)ccn2)CC1` [Example 9, 1-methyl-4-(4-((2-oxo-3-((4-(trifluoromethoxy)phenyl)carbamoyl)pyridin-1(2H)-yl)methyl)pyridin-1-ium-2-yl)piperazin-1-ium bis-trifluoroacetate] gave a pIC50 of 6.00 to 7.00.
Work on `O=C(Cc1cccc(Cn2nc(-c3nc(-c4ccc(OC(F)(F)F)cc4)no3)ccc2=O)c1)N1CCOCC1` [Example 142, 2-({3-[2-(morpholin-4-yl)-2-oxoethyl]phenyl}methyl)-6-{3-[4-(trifluoromethoxy)phenyl]-1,2,4-oxadiazol-5-yl}-2,3-dihydropyridazin-3-one] yielded a pIC50 of 6.00 to 7.00.
